In patent publication US5498624A, “Selected pyrazolyl derivatives” (Monsanto Company, priority 1995, dated 1996):

Legend:
[1] = tested on: Pseudocercosporella herpotrichoides var. tritici; assay: Wheat True Eyespot In Vitro Assay (WES In Vitro); assay type: cell-based; design: key: 0: no inhibition of mycelial growth; 1: slight inhibition of mycelial growth; 2: moderate inhibition of mycelial growth; 3: strong inhibition of mycelial growth; settings: 3 days at 19° C.
Description: A) Pathogen/Inoculum Production--A mycelial transfer of Pseudocercosporella herpotrichoides var. tritici is placed onto potato dextrose agar plates and allowed to grow for 40 days at 20 ° C., without light. Five agar discs are taken from the actively growing culture and are placed equidistant, mycelial side down, onto a water agar plate, and incubated at 10 ° C. with 10 hours of fluorescent light per day. After 5 days of incubation, sporulation on the transferred discs begins, and plates are flooded with 3-5 mls sterile deionized water. One-half ml aliquots are taken from the resulting spore suspension and placed on new water agar plates. Spores are spread across plates using a bent glass rod and incubated at 10 ° C. with 10 hour fluorescent light periods per day. In 5-10 days, a lawn of spores is produced and can be "harvested".
B) Compound Preparation and Test Execution--200 μl of 1/4 strength potato dextrose broth is placed in each well of a 96 well microtiter plate. […] The commercial standard used is prochloraz at equivalent rates.
C) Inoculation/Incubation--50 μl of a 1×10^6 spores/ml suspension harvested using the method above is added to each well. The 96 well plates are incubated for 3 days at 19° C. in the dark.
D) Evaluation--After incubation, each well is visually assessed for growth inhibition on the following 0-3 scale:
0=no inhibition of mycelial growth
1=slight inhibition of mycelial growth
2=moderate inhibition of mycelial growth
3=strong inhibition of mycelial growth

[2] = tested on: Pseudocercosporella herpotrichoides var. tritici; assay: Wheat True Eyespot Foliar Protectant Treatment (WES Prot); assay type: in vivo
Description: A) Pathogen/Inoculum Production--Follows as per Example 4.
B) Host Propagation--Wheat seedlings, cv. Hart, are grown to the third leaf stage in a commercial soil preparation, "Metro Mix 200", amended with 100 gm/ft^3 slow release "Osmocote 14-14-1438 . A sufficient number of seeds are planted per pot (5 cm in diameter) in order to insure the production of 5 vigorous seedlings per pot. The plants are maintained in a growth chamber set at 21° C., 80% RH with a 12 hour photoperiod. Light intensity is set at 300 me/m^2 /sec.
C) Test Compound Preparation
1) Experimental compounds--Follows as per Example 1.
2) Controls and Standards--The commercial fungicide, prochloraz, applied at 20 and 5 ppm, is used as the standard for wheat eyespot control. Control treatments are sprayed only with the formulation solution.
D) Compound Application--Wheat plants are sprayed at the three leaf stage. The solution is foliarly applied to the basal stem area of the wheat using a Devilbiss Model 152 hand sprayer. The treated wheat is allowed to air dry at room temperature before being returned to a growth chamber. The growth chamber is set at 15° C., 85% RH and a 12 hour photoperiod. Light intensity is maintained at 300 me/m^2 /sec.
E) Inoculation/Incubation - The treated wheat plants are inoculated 24 hours after chemical treatment. Inoculation is done by spraying a 3×10^5 spores/ml suspension at the basal stem area of each plant. Approximately 1 ml of spore suspension is applied to each plant. Following inoculation, the basal stem area of the plants are covered with a 2-3 cm thick layer of fine vermiculite. The vermiculite is watered lightly and the plants returned to the growth room. The inoculated plants remain in the growth chamber for 4 weeks after which time they are evaluated for disease control.
F) Evaluation--Treatments are evaluated four weeks after inoculation. Disease assessment is based on the percent girdling of the stem base caused by an eyespot lesion. Five plants are rated per replicate. Phytotoxicity and growth effects are also noted at this time.
G) Data--All replicate data is recorded as a percent disease value. Treatment means are calculated and percent disease control is determined by the formula: (control mean--treatment mean)*100/control mean. The inoculated control treatment mean is used for this calculation. The percent protection values for the compounds of the present invention are as set out in the Table below.

Succinate Dehydrogenase = assay: Enzyme Inhibition I-50 (WGB): Succinate Dehydrogenase Assay using Septoria nodorum mitochondria; assay type: biochemical; settings: DCPIP reduction, read-out: WGB enzyme I-50
Description: Succinate Dehydrogenase Assay using Septoria nodorum mitochondria--Septorianodorum mycelia are prepared from spores via shake culture for 40-48 hours in 3% malt extract at room temperature. The mycelia are harvested by centrifugation and the pellets obtained are stored in the -80° C. freezer until use.
Mitochondria are isolated by a method adapted from White (Biochem. Biophys. Res. Commun. 44 (1971) 1212-19). Fifteen to twenty grams of frozen mycelia are resuspended in a 250 mL medium containing 0.25M sucrose, 5 mM tetrasodium ethylenediamine tetraacetic acid (Na4 EDTA), pH 7.0 containing 1.5 g/liter bovine serum albumin (BSA) and placed in a Bead Beater chamber (BioSpec Products, Bartlesville, Okla.). Zirconium oxide beads (0.5 mm) are added to finish filling the chamber. Four 30s beats separated by 2 rain temperature equilibration periods on ice are used to break the mycelia. The homogenate is centrifuged for 20 min at 3000×g and 4° C. to remove debris. The supernatant is recentrifuged at 20,000×g for 20 min at 4° C. The resulting pellet is resuspended in BSA-free sucrose/EDTA medium (40 mL) using a glass tissue homogenizer and teflon pestle and recentrifuged at 27,000×g for 15 min at 4° C. The pellet is resuspended in BSA-free sucrose/EDTA medium (~3 mL) and used for SDH assays.
The enzyme activity is measured at […] in a solution containing 50 mM potassium phosphate, pH7.2; 1 mM potassium cyanide; 45 μM 2,6-dichlorophenol indophenol (DCPIP) and 17 mM disodium succinate in a final volume of 1 mL with a Perkin-Elmer Lambda 7 ultraviolet-visible spectrophotometer. The test compounds are added as acetone solutions (final concentration of acetone less than or equal to 1%(v/v)). The mitochondrial preparations are used to initiate the reaction. All rates are corrected for succinate-independent dye reduction. Semilog plots of percentage inhibition versus test compound concentration are used to determine inhibition expressed as I50 (μM) which is the concentration required to inhabit the rate of DCPIP reduction by 50%. The commercial fungicide carboxin is used as a standard throughout [I50 (μM)=5.0±2.2; n=52].

[3] = 20 ppm foliar protectant, * = averaged value
[4] = 100 ppm foliar protectant, * = averaged value
[5] = 500 ppm foliar protectant, four weeks after inoculation

SMILES	WES In vitro growth inhibition 0-3 scale ([1]; 0.1 ppm)	WES In vitro growth inhibition 0-3 scale ([1]; 0.5 ppm)	WES In vitro growth inhibition 0-3 scale ([1]; 5.0 ppm)	WES Prot percent disease control [2, 3] [%]	WES Prot percent disease control [2, 4] [%]	IC50 (Succinate Dehydrogenase) [nM]	WES Prot percent disease control [2, 5] [%]
C[C@@H]1CCC[C@H](c2ccccc2NC(=O)c2cn(C)nc2C(F)F)C1 (relative stereo) [Number 2, 1H-pyrazole-4-carboxamide, 3-(difluoromethyl)-1-methyl-N-[2-(-3-methylcyclohexyl)phenyl]-, cis-]	1	2	3	12	82	37	
C[C@H]1CCC[C@H](c2ccccc2NC(=O)c2cn(C)nc2C(F)F)C1 (relative stereo) [Number 3, 1H-pyrazole-4-carboxamide, 3-(difluoromethyl)-1-methyl-N-[2-(3-methylcyclohexyl)phenyl]-, trans-]	1	2	3	01	95	50	
Cn1cc(C(=O)Nc2ccccc2[C@@H]2CCC[C@@H](C(F)(F)F)C2)c(C(F)F)n1 (relative stereo) [Number 6]	0	0	2		90	520	100
CC[C@H]1CC[C@@H](c2ccccc2NC(=O)c2cn(C)nc2C(F)F)CC1 [Number 1, 1H-pyrazole-4-carboxamide, 3-(difluoromethyl)-N-[2-(4-ethylcyclohexyl)phenyl]-1-methyl-, cis-]	0	3	3	29	79	15	100
Cn1cc(C(=O)Nc2ccccc2[C@H]2CC[C@H](C)CC2)c(C(F)(F)F)n1 [Number 4, 1H-pyrazole-4-carboxamide, 1-methyl-N-[2-(4-methylcyclohexyl)phenyl]-3-(trifluoromethyl)-, trans-]	1	2	3	54	98	29	100
Cn1cc(C(=O)Nc2ccccc2C2CCC(C)(C)CC2)c(C(F)F)n1 [Number 5, 1H-pyrazole-4-carboxamide, 3-(difluoromethyl)-N-(2-(4,4-dimethylcyclohexyl)phenyl]-1-methyl-]	1	3	3	59	99	8	
